The values below come from patent US10071080B2, “MIF inhibitors for the acute or chronic treatment of pulmonary hypertension” (MIFCARE, priority 2014, dated 2018).

Structures are written as SMILES.

Data set [1] has as its target T1, recombinant human MIF (Homo sapiens, UniProt P14174).
T1 construct: purchased RayBiotech
T1 sequence (P14174 2-115 limits assumed): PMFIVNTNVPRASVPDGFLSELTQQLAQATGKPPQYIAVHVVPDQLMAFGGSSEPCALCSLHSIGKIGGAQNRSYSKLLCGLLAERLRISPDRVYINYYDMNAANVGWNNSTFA
The data set can be described thus: MIF tautomerase assay using 4-hydroxyphenylpyruvate (4-HPP). The format is biochemical. Particulars: for inhibition at 0.001 µM: compounds at 1 nM, substrate 4-HPP, compared to positive control with rhMIF alone. How it is done:
Tautomerase activity was assessed using 4-hydroxyphenylpyruvate (4-HPP) as substrate. 4-HPP was dissolved in 50 mM ammonium acetate at pH 6.0, allowed to equilibrate to room temperature and stored at −20° C. 300 ng/mL of recombinant human MIF (rhMIF; RayBiotech, Le Perray en Yvelines, France) and tested compounds were pre-incubated at room temperature for 15 min. Tautomerase activity was assessed at room temperature, by adding 4-HHP to a 96-well plate containing 0.435 M boric acid at pH 6.6 and rhMIF with or without (positive control) tested compounds (1 nM), and by measuring the increase in absorbance at 320 nm over 10-360 s using the 2103 EnVision™ Multilabel Plate Readers (PerkinElmer, Villebon-sur-Yvette, France). Compounds were tested at 1 nM. The assay was replicated 3 to 6 times independently.

In data set [2] the test system is MCT-injected rats. The data set can be described thus: Rodent model of pulmonary hypertension (monocrotaline). The format is in vivo. To be noted: for degree of established PH: started one week after MCT; for mean pulmonary arterial pressure (mPAP): 2 weeks. On the procedure:
Animal studies were approved by the administrative panel on animal care at the Univ. Paris-Sud, Le Plessis-Robinson, France. Young male Wistar rats (100 g, Janvier Labs, France) were studied 3 weeks after a single subcutaneous injection of monocrotaline (60 mg/kg) (Sigma-Aldrich, Saint-Quentin Fallavier, France), or vehicle. One week after a single subcutaneous injection of monocrotaline (MCT), rats were randomly divided into several groups and treated for 2 weeks with • (example 3) daily intraperitoneal injections of ISO-1, compound 1 of the invention (M3), M41, or vehicle (vehicle A: 50% (v/v) DMSO (Dimethyl sulfoxide) in normal saline for i.v. administrations) at a dose of 10 mg·kg^−1·day^−1; or • (example 4) daily per os administration of compounds of the invention, or vehicle (vehicle B: 33% DMSO, 45% propylene glycol, 21% saline) at a dose of 30 mg·kg^−1·day^−1.
Animals were anesthetized with isoflurane. A polyvinyl catheter was introduced into the right jugular vein and pushed through the right ventricle into the pulmonary artery. Cardiac output in rat was measured using the thermodilution method. After measurement of hemodynamic parameters, the thorax was opened and the left lung immediately removed and frozen. The right lung was fixed in the distended state with formalin buffer. The right ventricular hypertrophy (RVH) index and the percentage of muscularized vessels were determined as previously described (Guignabert C 2009 J Faseb 23 (12): 4135-4147).

Data set [3] deals with DU-145 cell line. The data set can be described thus: MTT assay, cell proliferation and survival, DU-145. The format is cell-based. To be noted: 24 h, effect significantly superior compared to ISO-1 (p<0.05); for cell survival: 0% FCS, at 100 μM and 50 μM. On the procedure: (§1) P-ECs were isolated and cultured from lung specimens of patients with idiopathic pulmonary arterial hypertension (iPAH) as previously described (Tu et al., Am J Respir Cell Mol Biol. 2012). The isolated P-ECs were strongly positive for acetylated low-density lipoprotein coupled to Alexa 488 (Alexa488-Ac-LDL), von Willebrand factor (vWF), CD31, and for Ulex europaeus agglutinin-1 (UEA-1) and negative for alpha-smooth muscle actin (α-SMA). DU-145 cell lines and iPAH ECs were grown in MCDB131 medium (Fisher, Illkirch Cedex, France) supplemented with 10% fetal calf serum (FCS), penicillin-streptomycin solution, glutamine, HEPES and amphotericine.
(§2) To determine the impact of the compounds of the invention on the proliferation and the survival of DU-145 cell line and iPAH P-ECs, the methyl tetrazolium (MTT) assay was performed. To this aim, cells were plated in a 96-well plate and cultured in MCDB131 medium (Fisher, Illkirch Cedex, France) supplemented with 10% fetal calf serum (FCS) for 24 h. DU-145 and iPAH ECs monolayers were then washed and 50 or 100 μM of tested compounds were added with 0% (for cell survival assessment) or 10% (for cell proliferation assessment) of FCS for 24 h. Then, cells were incubated with 5 mg/mL of MTT for 6 h of incubation. At the end of the incubation time, medium was removed, dimethylsulfoxide (DMSO) was added in each well and absorbance was recorded at 590 nm using the microplate spectrophotometer system EnVision (PerkinElmer, Waltam, USA).

Data set [4] concerns iPAH P-ECs (human pulmonary endothelial cells). As to the kind of experiment: MTT assay, cell proliferation and survival, iPAH P-ECs. The format is cell-based. Particulars: iPAH EC, 24 h, effect significantly superior compared to ISO-1 (p<0.05); for cell survival: 0% FCS, at 100 μM and 50 μM. How it is done:
as §1, §2

Where [5] appears, read: daily intraperitoneal 10 mg/kg/day for 2 weeks, day 21.
Setting [6] is: 30 mg/kg oral daily, compared to MCT-injected rats treated with vehicle B, p<0.05.
[7] abbreviates: oral daily 30 mg/kg/day for 2 weeks.
Setting [8] is: 10 mg/kg daily intraperitoneal, compared to MCT-injected rats treated with vehicle A.

The term inhibition denotes the share of the control response that was lost under treatment. Turning to `COc1ccccc1Cn1c(=S)oc2ccc(C)cc21` [Compound 2, 3-(2-methoxybenzyl)-5-methylbenzo[d]oxazole-2(3H)-thione], the inhibition at 0.001 µM in data set [1] turned out to be 36%.

As for `Cc1ccc2oc(=O)n(Cc3cccc(O)c3)c2c1` [Compound M41, reference compound], the inhibition at 0.001 µM in data set [1] was 29%. In data set [2] (MCT-injected rats, 10 mg/kg/day intraperitoneal), the mortality rate was 5/6. In addition, the “degree of established PH” value in data set [2] (setting [5]) is listed as “substantially attenuates the degree of established PH”.

With `Oc1cc(Cn2c(=S)oc3ccc(C(F)(F)F)cc32)ccc1F` [Compound 5, 3-(4-fluoro-3-hydroxybenzyl)-5-(trifluoromethyl)benzo[d]oxazole-2(3H)-thione], the inhibition at 0.001 µM in data set [1] stood at 43%. Also, in data set [2] (setting [6]), the “mean pulmonary arterial pressure (mPAP)” value is listed as “substantial reduction”. For the same molecule, in data set [2] (compound 5 at 30 mg/kg oral daily for 2 weeks, sildenafil at 100 mg/kg), the “degree of established PH, compared with treatment by sildenafil” value is listed as “substantially attenuates the degree of established PH”. For the same molecule, the “degree of established PH” value in data set [2] (setting [7]) was “substantially attenuates the degree of established PH”. Besides, the cell survival entry in data set [3] and in data set [4] was “decrease significantly cell survival” each time. For the same molecule, the cell proliferation result in data set [3] (10% FCS, 50 or 100 μM) is on record as “inhibit significantly cell proliferation”; in data set [4] (10% FCS, 50 or 100 μM), “inhibit significantly cell proliferation”.

`Cc1ccc2oc(=S)n(Cc3ccc(F)c(O)c3)c2c1` [Compound 4, 3-(4-fluoro-3-hydroxybenzyl)-5-methylbenzo[d]oxazole-2(3H)-thione]: the inhibition at 0.001 µM in data set [1] came out at 39%. Also, the “mean pulmonary arterial pressure (mPAP)” value in data set [2] (setting [6]) is on record as “substantial reduction”. In addition, the “degree of established PH” value in data set [2] (setting [7]) was “substantially attenuates the degree of established PH”. Moreover, the cell survival result in data set [3] and in data set [4] was “decrease significantly cell survival” throughout.

Regarding `Cc1ccc2oc(=S)n(Cc3ccccc3)c2c1` [Compound 3, 3-benzyl-5-methylbenzo[d]oxazole-2(3H)-thione], the inhibition at 0.001 µM in data set [1] is 35%.

Regarding `Cc1ccc2oc(=S)n(Cc3cccc(O)c3)c2c1` [Compound 1, 3-(3-hydroxybenzyl)-5-methylbenzo[d]oxazole-2(3H)-thione], the “inhibitory effect against the MIF tautomerase activity (in words)” value in data set [1] (compound 1 compared to benzoxazol-2-one analogue M41, compounds of the invention compared to ISO-1) is listed as “good inhibitory effect”. Moreover, the inhibition at 0.001 µM in data set [1] was 41%. Also, in data set [2] (setting [8]), the “mean pulmonary arterial pressure (mPAP)” value was “substantial reduction in values of mPAP”. In data set [2] (setting [5]), the “degree of established PH” value is on record as “substantially attenuates the degree of established PH”. In data set [2] (same dose, 10 mg/kg, p=0.0855), the “mPAP, compared to MCT-injected rats treated with ISO-1” value is “higher beneficial effects in mPAP”.

As for `COC(=O)CC1CC(c2ccc(O)cc2)=NO1` (stereo not shown) [ISO-1, reference compound], in data set [1], the inhibition at 0.001 µM turned out to be 21%. The “mean pulmonary arterial pressure (mPAP)” value in data set [2] (setting [8]) is “substantial reduction in values of mPAP”.
